Assay results from patent US20240382629A1, “HETEROBIVALENT AND HOMOBIVALENT AGENTS TARGETING FIBROBLAST ACTIVATION PROTEIN ALPHA AND/OR PROSTATE-SPECIFIC MEMBRANE ANTIGEN” (The Johns Hopkins University, priority 2021, published 2024).

Test system: U87 tumor
Assay: Biodistribution ([^18F]JHU1221823), carrier / specific activity study
Type: in vivo, mouse
Details: mean
Description: Biodistribution of Representative Compounds

[1] = NOD/SCID, U87 tumor, Carrier 350 (350 mCi/μmol), 60 min post injection
[2] = Nude mice, U87 tumor, Baseline (~5000 mCi/μmol), 60 min post injection
[3] = Nude mice, U87 tumor, Carrier 350 (350 mCi/μmol), 60 min post injection
[4] = Nude mice, U87 tumor, Carrier 700, 60 min post injection
[5] = U87 tumor, Baseline, second block (stands before <NOD/SCID> heading), 60 min post injection

N#C[C@@H]1CCCN1C(=O)CNC(=O)c1ccnc2ccc(OCCCNC(=O)CCOCCOCCOCCOCCNC(=O)[C@H](CCCCNC(=O)c3ccc([18F])nc3)NC(=O)CN3CCN(CC(=O)O)CCN(CC(=O)O)CCN(CC(=O)O)CC3)cc12 [[^18F]JHU1221823]
Liver % ID/g [1]: 1.76 % ID/g | Lung % ID/g [1]: 2.74 % ID/g | Muscle % ID/g [1]: 2.03 % ID/g | Pancreas % ID/g [1]: 10.18 % ID/g | Salivary gland % ID/g [1]: 9.49 % ID/g | Small intestine % ID/g [1]: 2.29 % ID/g | Spleen % ID/g [1]: 1.80 % ID/g | Stomach % ID/g [1]: 1.47 % ID/g | Tumor % ID/g [1]: 8.64 % ID/g | Bladder % ID/g [2]: 2.38 % ID/g | Blood % ID/g [2]: 11.46 % ID/g | Brain % ID/g [2]: 0.23 % ID/g | Fat % ID/g [2]: 0.99 % ID/g | Femur % ID/g [2]: 2.41 % ID/g | Heart % ID/g [2]: 5.54 % ID/g | Kidney % ID/g [2]: 2.91 % ID/g | Large intestine % ID/g [2]: 1.40 % ID/g | Liver % ID/g [2]: 3.31 % ID/g | Lung % ID/g [2]: 6.97 % ID/g | Muscle % ID/g [2]: 1.75 % ID/g | Pancreas % ID/g [2]: 3.36 % ID/g | Salivary gland % ID/g [2]: 6.91 % ID/g | Small intestine % ID/g [2]: 2.70 % ID/g | Spleen % ID/g [2]: 2.06 % ID/g | Stomach % ID/g [2]: 1.23 % ID/g | Tumor % ID/g [2]: 2.33 % ID/g | Bladder % ID/g [3]: 1.73 % ID/g | Blood % ID/g [3]: 5.84 % ID/g | Brain % ID/g [3]: 0.14 % ID/g | Fat % ID/g [3]: 0.89 % ID/g | Femur % ID/g [3]: 4.15 % ID/g | Heart % ID/g [3]: 2.50 % ID/g | Kidney % ID/g [3]: 2.07 % ID/g | Large intestine % ID/g [3]: 1.76 % ID/g | Liver % ID/g [3]: 1.90 % ID/g | Lung % ID/g [3]: 3.45 % ID/g | Muscle % ID/g [3]: 2.41 % ID/g | Pancreas % ID/g [3]: 6.29 % ID/g | Salivary gland % ID/g [3]: 11.15 % ID/g | Small intestine % ID/g [3]: 2.42 % ID/g | Spleen % ID/g [3]: 1.29 % ID/g | Stomach % ID/g [3]: 1.56 % ID/g | Tumor % ID/g [3]: 2.27 % ID/g | Bladder % ID/g [4]: 2.23 % ID/g | Blood % ID/g [4]: 9.94 % ID/g | Brain % ID/g [4]: 0.20 % ID/g | Fat % ID/g [4]: 0.49 % ID/g | Femur % ID/g [4]: 3.06 % ID/g | Heart % ID/g [4]: 4.65 % ID/g | Kidney % ID/g [4]: 2.53 % ID/g | Large intestine % ID/g [4]: 1.62 % ID/g | Liver % ID/g [4]: 2.81 % ID/g | Lung % ID/g [4]: 5.57 % ID/g | Muscle % ID/g [4]: 2.07 % ID/g | Pancreas % ID/g [4]: 3.91 % ID/g | Salivary gland % ID/g [4]: 8.13 % ID/g | Small intestine % ID/g [4]: 2.18 % ID/g | Spleen % ID/g [4]: 1.72 % ID/g | Stomach % ID/g [4]: 1.37 % ID/g | Tumor % ID/g [4]: 2.01 % ID/g | Bladder % ID/g [5]: 6.92 % ID/g | Blood % ID/g [5]: 10.99 % ID/g | Brain % ID/g [5]: 0.22 % ID/g | Fat % ID/g [5]: 0.62 % ID/g | Femur % ID/g [5]: 2.37 % ID/g | Heart % ID/g [5]: 6.95 % ID/g | Kidney % ID/g [5]: 3.41 % ID/g | Large intestine % ID/g [5]: 2.18 % ID/g | Liver % ID/g [5]: 4.38 % ID/g | Lung % ID/g [5]: 7.03 % ID/g | Muscle % ID/g [5]: 1.64 % ID/g | Pancreas % ID/g [5]: 8.17 % ID/g | Salivary gland % ID/g [5]: 11.89 % ID/g | Small intestine % ID/g [5]: 3.66 % ID/g | Spleen % ID/g [5]: 2.16 % ID/g | Stomach % ID/g [5]: 1.81 % ID/g | Tumor % ID/g [5]: 3.08 % ID/g | Bladder % ID/g (carrier not given): 4.53 % ID/g | Blood % ID/g (carrier not given): 9.54 % ID/g | Brain % ID/g (carrier not given): 0.22 % ID/g | Fat % ID/g (carrier not given): 1.07 % ID/g | Femur % ID/g (carrier not given): 2.83 % ID/g | Heart % ID/g (carrier not given): 4.65 % ID/g | Kidney % ID/g (carrier not given): 2.73 % ID/g | Large intestine % ID/g (carrier not given): 1.49 % ID/g | Liver % ID/g (carrier not given): 2.99 % ID/g | Lung % ID/g (carrier not given): 5.72 % ID/g | Muscle % ID/g (carrier not given): 1.78 % ID/g | Pancreas % ID/g (carrier not given): 2.14 % ID/g | Salivary gland % ID/g (carrier not given): 6.93 % ID/g | Small intestine % ID/g (carrier not given): 3.02 % ID/g | Spleen % ID/g (carrier not given): 2.15 % ID/g | Stomach % ID/g (carrier not given): 1.14 % ID/g | Tumor % ID/g (carrier not given): 5.71 % ID/g
